Laboratory results: ChEMBL document CHEMBL5055633, “Amphipathic Barbiturates as Mimics of Antimicrobial Peptides and the Marine Natural Products Eusynstyelamides with Activity against Multi-resistant Clinical Isolates” (J Med Chem, 2021)

Columns and labels:
[1] = system: Staphylococcus aureus; test: Antimicrobial activity against extended spectrum-lactamase-carbapenemas producing Staphylococcus aureus strain WIS assessed as reduction in bacterial growth incubated for 48 hrs by microdilution method; assay type: functional
[2] = system: Acinetobacter baumannii; test: Antimicrobial activity against oxacillinase-58 producing Acinetobacter baumannii K12-21 assessed as reduction in bacterial growth incubated for 48 hrs by microdilution method; assay type: functional
[3] = system: Staphylococcus aureus; test: Antimicrobial activity against extended spectrum-lactamase-carbapenemas producing Staphylococcus aureus N315 assessed as reduction in bacterial growth incubated for 48 hrs by microdilution method; assay type: functional
[4] = Antimicrobial activity against New Delhi metallo-beta lactamase-1 Klebsiella pneumoniae K66-45 assessed as reduction in bacterial growth incubated for 48 hrs by microdilution method; assay type: functional
[5] = system: MRC5; test: Cytotoxicity against human MRC5 cells assessed as reduction in cell viability incubated for 24 hrs by colorimetric tetrazolium assay; assay type: functional, cell-based; settings: MRC5, 24 h
[6] = system: Escherichia coli; test: Antimicrobial activity against oxacillinase-producing Escherichia coli 50579417 assessed as reduction in bacterial growth incubated for 48 hrs by microdilution method; assay type: functional
[7] = Antimicrobial activity against verona integron-encoded metallo-beta-lactamase -1 producing Klebsiella pneumoniae 50667959 assessed as reduction in bacterial growth incubated for 48 hrs by microdilution method; assay type: functional
[8] = system: Pseudomonas aeruginosa; test: Antimicrobial activity against verona integron-encoded metallo-beta-lactamase producing Pseudomonas aeruginosa 50692520 assessed as reduction in bacterial growth incubated for 48 hrs by microdilution method; assay type: functional
[9] = Antimicrobial activity against oxacillinase-245 producing Klebsiella pneumoniae 50625602 assessed as reduction in bacterial growth incubated for 48 hrs by microdilution method; assay type: functional
[10] = system: Escherichia coli; test: Antimicrobial activity against New Delhi metallo-beta lactamase-1 producing Escherichia coli 50676002 assessed as reduction in bacterial growth incubated for 48 hrs by microdilution method; assay type: functional
[11] = system: Staphylococcus aureus; test: Antimicrobial activity against extended spectrum-lactamase-carbapenemas producing Staphylococcus aureus NCTC 10442 assessed as reduction in bacterial growth incubated for 48 hrs by microdilution method; assay type: functional
[12] = system: Acinetobacter baumannii; test: Antimicrobial activity against oxacillinase-23 producing Acinetobacter baumannii K44-35 assessed as reduction in bacterial growth incubated for 48 hrs by microdilution method; assay type: functional
[13] = system: Escherichia coli; test: Antimicrobial activity against imipenem-type carbapenemase-26 producing Escherichia coli 50857972 assessed as reduction in bacterial growth incubated for 48 hrs by microdilution method; assay type: functional
[14] = system: Acinetobacter baumannii; test: Antimicrobial activity against oxacillinase-24 producing Acinetobacter baumannii K55-13 assessed as reduction in bacterial growth incubated for 48 hrs by microdilution method; assay type: functional
[15] = system: Escherichia coli; test: Antimicrobial activity against Escherichia coli ATCC 25922 assessed as reduction in bacterial growth incubated for 48 hrs by microdilution susceptibility test; assay type: functional
[16] = system: Staphylococcus aureus; test: Antimicrobial activity against extended spectrum-lactamase-carbapenemas producing Staphylococcus aureus strain 85/2082 assessed as reduction in bacterial growth incubated for 48 hrs by microdilution method; assay type: functional
[17] = system: Pseudomonas aeruginosa; test: Antimicrobial activity against Pseudomonas aeruginosa PAO1 assessed as reduction in bacterial growth incubated for 48 hrs by microdilution susceptibility test; assay type: functional
[18] = Antimicrobial activity against New Delhi metallo-beta lactamase-1 and oxacillinase -181 producing Klebsiella pneumoniae 50531633 assessed as reduction in bacterial growth incubated for 48 hrs by microdilution method; assay type: functional
[19] = system: Acinetobacter baumannii; test: Antimicrobial activity against oxacillinase-23 producing Acinetobacter baumannii K63-58 assessed as reduction in bacterial growth incubated for 48 hrs by microdilution method; assay type: functional
[20] = system: Pseudomonas aeruginosa; test: Antimicrobial activity against New Delhi metallo-beta lactamase-1 producing Pseudomonas aeruginosa 50692172 assessed as reduction in bacterial growth incubated for 48 hrs by microdilution method; assay type: functional
[21] = system: Staphylococcus aureus; test: Antimicrobial activity against extended spectrum-lactamase-carbapenemas producing Staphylococcus aureus strain IHT 99040 assessed as reduction in bacterial growth incubated for 48 hrs by microdilution method; assay type: functional
[22] = system: Staphylococcus aureus; test: Antimicrobial activity against Staphylococcus aureus ATCC 9144 assessed as reduction in bacterial growth incubated for 48 hrs by microdilution susceptibility test; assay type: functional
[23] = system: Escherichia coli; test: Antimicrobial activity against New Delhi metallo-beta lactamase-1 producing Escherichia coli 50739822 assessed as reduction in bacterial growth incubated for 48 hrs by microdilution method; assay type: functional
[24] = system: Acinetobacter baumannii; test: Antimicrobial activity against oxacillinase-23 producing Acinetobacter baumannii K47-42 assessed as reduction in bacterial growth incubated for 48 hrs by microdilution method; assay type: functional
[25] = system: Enterococcus faecium; test: Antimicrobial activity against extended spectrum-lactamase-carbapenemas producing Enterococcus faecium strain 50758899 assessed as reduction in bacterial growth incubated for 48 hrs by microdilution method; assay type: functional
[26] = system: Escherichia coli; test: Antimicrobial activity against verona integron-encoded metallo-beta-lactamase-29-producing Escherichia coli 50639799 assessed as reduction in bacterial growth incubated for 48 hrs by microdilution method; assay type: functional
[27] = system: Pseudomonas aeruginosa; test: Antimicrobial activity against verona integron-encoded metallo-beta-lactamase-4 producing Pseudomonas aeruginosa K34-73 assessed as reduction in bacterial growth incubated for 48 hrs by microdilution method; assay type: functional
[28] = system: Enterococcus faecium; test: Antimicrobial activity against extended spectrum-lactamase-carbapenemas producing Enterococcus faecium strain K36-18 assessed as reduction in bacterial growth incubated for 48 hrs by microdilution method; assay type: functional
[29] = system: Enterococcus faecium; test: Antimicrobial activity against extended spectrum-lactamase-carbapenemas producing Enterococcus faecium strain 50901530 assessed as reduction in bacterial growth incubated for 48 hrs by microdilution method; assay type: functional
[30] = system: Enterococcus faecium; test: Antimicrobial activity against extended spectrum-lactamase-carbapenemas producing Enterococcus faecium strain TUH.50-22 assessed as reduction in bacterial growth incubated for 48 hrs by microdilution method; assay type: functional
[31] = system: Pseudomonas aeruginosa; test: Antimicrobial activity against verona integron-encoded metallo-beta-lactamase-2 producing Pseudomonas aeruginosa K34-7 assessed as reduction in bacterial growth incubated for 48 hrs by microdilution method; assay type: functional
[32] = system: Enterococcus faecium; test: Antimicrobial activity against extended spectrum-lactamase-carbapenemas producing Enterococcus faecium strain 50673722 assessed as reduction in bacterial growth incubated for 48 hrs by microdilution method; assay type: functional
[33] = Antimicrobial activity against carbapenemase producing Klebsiella pneumoniae K47-25 assessed as reduction in bacterial growth incubated for 48 hrs by microdilution method; assay type: functional
[34] = system: Pseudomonas aeruginosa; test: Antimicrobial activity against imipenem-type carbapenemase-14 producing Pseudomonas aeruginosa K44-24 assessed as reduction in bacterial growth incubated for 48 hrs by microdilution method; assay type: functional
[35] = system: Corynebacterium glutamicum; test: Antimicrobial activity against Corynebacterium glutamicum ATCC 13032 assessed as reduction in bacterial growth incubated for 48 hrs by microdilution susceptibility test; assay type: functional
[36] = system: HepG2; test: Cytotoxicity against human HepG2 cells assessed as reduction in cell viability incubated for 24 hrs by colorimetric tetrazolium assay; assay type: functional, cell-based; settings: HepG2, 24 h
[37] = Hemolytic activity in human erythrocytes incubated for 1 hr by microplate reader; assay type: functional, cell-based; settings: erythrocyte

Row | Structure (SMILES) | MIC [1] [µg/mL] | MIC [2] [µg/mL] | MIC [3] [µg/mL] | MIC [4] [µg/mL] | IC50 [5] [µg/mL] | MIC [6] [µg/mL] | MIC [7] [µg/mL] | MIC [8] [µg/mL] | MIC [9] [µg/mL] | MIC [10] [µg/mL] | MIC [11] [µg/mL] | MIC [12] [µg/mL] | MIC [13] [µg/mL] | MIC [14] [µg/mL] | MIC [15] [µg/mL] | MIC [16] [µg/mL] | MIC [17] [µg/mL] | MIC [18] [µg/mL] | MIC [19] [µg/mL] | MIC [20] [µg/mL] | further results
1 | NCCCCN1C(=O)N(CCCCN)C(=O)C(Cc2ccc3ccccc3c2)(Cc2ccc3ccccc3c2)C1=O.O=C(O)C(F)(F)F.O=C(O)C(F)(F)F | 8 | 32 | 8 | > 32 | 2 | 16 | > 32 | 32 | > 32 | 16 | 8 | 32 | 16 | 32 | 16 | 8 | 16 | 32 | 16 | 32 | MIC [21]: 8 µg/mL; MIC [22]: 8 µg/mL; MIC [23]: 16 µg/mL; MIC [24]: 32 µg/mL; MIC [25]: 16 µg/mL; MIC [26]: 16 µg/mL; MIC [27]: 32 µg/mL; MIC [28]: 16 µg/mL; MIC [29]: 8 µg/mL; MIC [30]: 8 µg/mL; MIC [31]: 32 µg/mL; MIC [32]: 16 µg/mL; MIC [33]: > 32 µg/mL; MIC [34]: > 32 µg/mL; MIC [35]: 1 µg/mL; IC50 [36]: 7 µg/mL; EC50 [37]: 250 µg/mL
2 | CC(C)(C)c1cc(CC2(Cc3cc(C(C)(C)C)cc(C(C)(C)C)c3)C(=O)N(CCCCNC(=N)N)C(=O)N(CCCCNC(=N)N)C2=O)cc(C(C)(C)C)c1.O=C(O)C(F)(F)F.O=C(O)C(F)(F)F | 2 | 4 | 4 | 8 | 17 | 16 | 8 | 16 | 16 | 16 | 2 | 4 | 8 | 4 | 4 | 2 | 4 | 16 | 4 | 16 | MIC [21]: 2 µg/mL; MIC [22]: 1 µg/mL; MIC [23]: 8 µg/mL; MIC [24]: 4 µg/mL; MIC [25]: 2 µg/mL; MIC [26]: 8 µg/mL; MIC [27]: 8 µg/mL; MIC [28]: 2 µg/mL; MIC [29]: 2 µg/mL; MIC [30]: 2 µg/mL; MIC [31]: 16 µg/mL; MIC [32]: 2 µg/mL; MIC [33]: 16 µg/mL; MIC [34]: 16 µg/mL; MIC [35]: 0.25 µg/mL; IC50 [36]: 15 µg/mL; EC50 [37]: < 6 µg/mL
3 | NCCCCN1C(=O)N(CCCCN)C(=O)C(Cc2ccc(C(F)(F)F)cc2)(Cc2ccc(C(F)(F)F)cc2)C1=O.O=C(O)C(F)(F)F.O=C(O)C(F)(F)F | > 32 | > 32 | > 32 | > 32 | 16 | > 32 | > 32 | > 32 | > 32 | > 32 | > 32 | > 32 | > 32 | > 32 | 128 | > 32 | 64 | > 32 | > 32 | > 32 | MIC [21]: > 32 µg/mL; MIC [22]: 64 µg/mL; MIC [23]: > 32 µg/mL; MIC [24]: > 32 µg/mL; MIC [25]: > 32 µg/mL; MIC [26]: > 32 µg/mL; MIC [27]: > 32 µg/mL; MIC [28]: > 32 µg/mL; MIC [29]: > 32 µg/mL; MIC [30]: > 32 µg/mL; MIC [31]: > 32 µg/mL; MIC [32]: > 32 µg/mL; MIC [33]: > 32 µg/mL; MIC [34]: > 32 µg/mL; MIC [35]: 4 µg/mL; IC50 [36]: 40 µg/mL; EC50 [37]: > 398 µg/mL
